From US4764464A, “Semisynthetic enzymes: apoproteins from heme proteins as hydrolases” (priority 1986, dated 1988)

Key:
apomyoglobin = molecular target: T1, apomyoglobin (Physeter macrocephalus, UniProt P02185); assay: Hydrolysis of p-nitrophenyl alkanoates catalysed by apomyoglobin (absorbance at 400 nm); type: biochemical, sperm whale; conditions: for k2 /KM (catalytic constant) / k2 /Kun (enhancement over rate in the absence of apomyoglobin) / K2 / kobs: 25° C.; for k2 /KM (catalytic constant) / k2 /Kun (enhancement over rate in the absence of apomyoglobin) / K2: pH 8; for K2: Lineweaver Burk; for kobs: pH 8, 0.05 M TRIS
T1 construct: purchased
Experimental: Preparation of Apomylglobin. The heme group was removed from sperm whale metmyoglobin by the acid acetone method of Rossi-Fanelli and coworkers, op. cit., from a commercially available sample which was not purified prior to use.
(§1) Hydrolysis of p-Nitrophenyl Alkanoates. The experimental methods used in the hydrolysis of these esters is exemplified by the hydrolysis of p-nitrophenyl caproate. Kinetic runs were performed with the semisynthetic enzyme, apomyoglobin, in excess of the substrate. All hydrolyses were done in 99.9% aqueous media at 25° C. at pH 8 using 0.05 molar tris(hydroxymethyl)aminomethane(TRIS) as a buffer. Each sample cuvette containing varying concentrations of apomyoglobin (Eo) in 1 ml of 0.05M buffer was allowed to equilibrate at 25° C. in a thermostated cell holder of a spectrophotometer. To this was added 1 microliter of 1.13×10^-2 M p-nitrophenyl caproate in ethanol and the contents thereafter were mixed well. The increase in absorbance at 400 nm arising from the p-nitrophenolate ion was monitored as a function of time until hydrolysis was complete.
(§2) In the absence of apomyoglobin the hydrolysis of a solution of 1.13×10^-5 M of the same ester under the same conditions proceeded with the rate constant of 2.7×10^-5 sec^-1. The enhancement achieved with the semisynthetic enzyme is therefore 1800.
Where the same type of experiment yielded a decrease in catalysis rate in those instances the deacylation may become rate limiting. Some results of ester hydrolysis catalyzed by apomyoglobin are summarized in Table 2, where k2 /kM is often referred to as the "catalytic constant," and kun is the hydrolytic rate constant in the absence of apomyoglobin.

[1] = tested on: apomyoglobin (denatured, 8 molar urea); assay: Hydrolysis of p-nitrophenyl acetate with apomyoglobin denatured in 8 molar urea; type: biochemical, sperm whale; conditions: after 150 seconds, apomyoglobin solution also 8 molar in urea
Experimental: To ascertain that our remarkable catalytic rates result from the active site only of the empty heme pocket or cavity the following experiments were performed. In the first experiment reconstituted myoglobin was prepared from apomyoglobin and hemin, and the hydrolysis of p-nitrophenyl caproate was determined as previously described. […] This eliminates the possibility that periperal lysine and histidine residues catalyze hydrolysis. In the second experiment the rate of hydrolysis of a solution of p-nitrophenyl acetate in buffer containing apomyoglobin, prepared as described above, was compared with the rate of hydrolysis in a similar solution which was also 8 molar in urea to ensure denaturation of apomyoglobin. After 150 seconds the reaction was 98% complete in the first solution, but only 2% complete in the urea-containing solution.

[2] = Denaturation (stability) of the apoprotein under reaction conditions; type: physicochemical, sperm whale
Experimental: The reaction temperature also is dictated by stability of the semisynthetic enzyme. When apoprotein derived from, e.g., sperm whale myoglobin is used, it often is denatured substantially at a temperature in excess of about 40° C., and consequently its use is recommended at a temperature under about 40° C. However, it needs to be emphasized that even where the semisynthetic enzyme is denatured at a higher temperature it can be used so long as its denaturation is slower than hydrolysis, although no reuse may be possible.
Finally, the pH at which the hydrolysis is performed also is dictated by the denaturation properties of the semisynthetic enzyme. For example, where the apoprotein is derived from sperm whale myoglobin a pH range between about 6.5 and about 9 is found to cause little if any denaturation.

reconstituted myoglobin = assay: Hydrolysis of p-nitrophenyl caproate with reconstituted myoglobin (apomyoglobin and hemin); type: biochemical, sperm whale; conditions: reconstituted myoglobin from apomyoglobin and hemin
Experimental: as §1
To ascertain that our remarkable catalytic rates result from the active site only of the empty heme pocket or cavity the following experiments were performed. In the first experiment reconstituted myoglobin was prepared from apomyoglobin and hemin, and the hydrolysis of p-nitrophenyl caproate was determined as previously described. […] This eliminates the possibility that periperal lysine and histidine residues catalyze hydrolysis. […]

[3] = Hydrolysis of the ester in the absence of apomyoglobin (spontaneous rate); type: physicochemical; conditions: 1.13×10^-5 M ester, 25° C., pH 8, 0.05 M TRIS
Experimental: as §1, §2

T1 sequence (P02185 whole entry): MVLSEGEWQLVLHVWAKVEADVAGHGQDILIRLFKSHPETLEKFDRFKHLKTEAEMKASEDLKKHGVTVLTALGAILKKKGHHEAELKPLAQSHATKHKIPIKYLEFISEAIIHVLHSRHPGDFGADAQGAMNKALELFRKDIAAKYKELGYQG

k2 /KM (catalytic constant) (apomyoglobin) [M⁻¹ s⁻¹]	k2 /Kun (enhancement over rate in the absence of apomyoglobin) (apomyoglobin)	K2 (apomyoglobin) [s⁻¹]	Compound	also measured
13.5	134	0.0058	CC(=O)Oc1ccc([N+](=O)[O-])cc1 [Acetate, p-nitrophenyl acetate]	rate of hydrolysis by 5×10^-5 M apomyoglobin versus apomyoglobin first reacted with 5×10^-5 M ester to 95% completion (apomyoglobin; 1×10^-5 M ester): identical; reaction completion (apomyoglobin; after 150 seconds, buffer containing apomyoglobin): 98%; Turnover (k3 versus k2) (apomyoglobin; rate with fresh apomyoglobin compared with pre-reacted apomyoglobin): k3 is much greater than k2; reaction completion [1]: 2%
26.4	127	0.0038	CCCC(=O)Oc1ccc([N+](=O)[O-])cc1 [Butyrate]	
			apoprotein derived from, e.g., sperm whale myoglobin: sperm whale metmyoglobin from which the heme group was removed by the acid acetone method; semisynthetic esterase	temperature above which substantially denatured [2]: > 40 °C
49	4600	0.03	CCCCCCCCCC(=O)Oc1ccc([N+](=O)[O-])cc1 [Caprate]	
6.4	42		CCC(=O)Oc1ccc([N+](=O)[O-])cc1	
67	1800	0.0493	CCCCCC(=O)Oc1ccc([N+](=O)[O-])cc1 [Caproate, p-nitrophenyl caproate]	hydrolysis rate relative to the spontaneous (uncatalyzed) rate (reconstituted myoglobin): not more than twice that of the spontaneous (uncatalyzed) rate; kobs (apomyoglobin; Eo 2.11 (10^-5 M) apomyoglobin): 1.08 10^-2 sec^-1; kobs (apomyoglobin; Eo 4.23 (10^-5 M) apomyoglobin): 1.84 10^-2 sec^-1; kobs (apomyoglobin; Eo 6.35 (10^-5 M) apomyoglobin): 2.21 10^-2 sec^-1; kobs (apomyoglobin; Eo 8.46 (10^-5 M) apomyoglobin): 2.63 10^-2 sec^-1; kobs (apomyoglobin; Eo 10.6 (10^-5 M) apomyoglobin): 2.83 10^-2 sec^-1; K2 (apomyoglobin; listed as p-nitrophenyl caproate): 0.0493 s⁻¹; rate constant of hydrolysis in the absence of apomyoglobin [3]: 2.7e-05 s⁻¹
